Results published in EP4745137A1 (Gluetacs Therapeutics (Shanghai) Co., Ltd., priority 2023, dated 2025).

Columns and labels:
CK1α = target: T1, CK1α (Homo sapiens, UniProt P48729+Q96SW2); assay: Western-blot assay of substrate protein degradation in hPBMCs, CK1α; format: cell-based; details: 24 hours of compound treatment
T1 construct: endogenous in cells; host or cells: hPBMCs (Milecell Biotechnologies)

WEE1 = target: T2, WEE1 (Homo sapiens, UniProt P30291+Q96SW2); assay: Western-blot assay of substrate protein degradation in hPBMCs, WEE1; format: cell-based; details: 24 hours of compound treatment
T2 construct: endogenous in cells; host or cells: hPBMCs (Milecell Biotechnologies)

[1] = target: T3, human Cereblon WT GST-tagged protein (Homo sapiens, UniProt Q96SW2); assay: CRBN-binding affinity by HTRF (CEREBLON BINDING kit); details: HTRF inhibitory activity, CEREBLON BINDING kit; read-out: HTRF IC50
T3 construct: purchased CISBIO 64BDCRBNPEH

IKZF3 = target: T4, IKZF3 (Homo sapiens, UniProt Q96SW2+Q9UKT9); assay: Western-blot assay of substrate protein degradation in hPBMCs, IKZF3; format: cell-based; details: 24 hours of compound treatment
T4 construct: endogenous in cells; host or cells: hPBMCs (Milecell Biotechnologies)

IKZF1 = target: T5, IKZF1 (Homo sapiens, UniProt Q13422+Q96SW2); assay: Western-blot assay of substrate protein degradation in hPBMCs, IKZF1; format: cell-based; details: 24 hours of compound treatment
T5 construct: endogenous in cells; host or cells: hPBMCs (Milecell Biotechnologies)

GSPT1 = target: T6, GSPT1 (Homo sapiens, UniProt P15170+Q96SW2); assay: Western-blot assay of substrate protein degradation in hPBMCs, GSPT1; format: cell-based; details: 24 hours of compound treatment
T6 construct: endogenous in cells; host or cells: hPBMCs (Milecell Biotechnologies)

IKZF2 = target: T7, IKZF2 (Homo sapiens, UniProt Q96SW2+Q9UKS7); assay: Western-blot assay of substrate protein degradation in hPBMCs, IKZF2; format: cell-based; details: 24 hours of compound treatment
T7 construct: endogenous in cells; host or cells: hPBMCs (Milecell Biotechnologies)

[2] = 50 nM and 500 nM tested (concentration behind the class not stated)
[3] = compounds tested at 50 nM and 500 nM (concentration of the table not stated)

T2 sequence (P30291 whole entry): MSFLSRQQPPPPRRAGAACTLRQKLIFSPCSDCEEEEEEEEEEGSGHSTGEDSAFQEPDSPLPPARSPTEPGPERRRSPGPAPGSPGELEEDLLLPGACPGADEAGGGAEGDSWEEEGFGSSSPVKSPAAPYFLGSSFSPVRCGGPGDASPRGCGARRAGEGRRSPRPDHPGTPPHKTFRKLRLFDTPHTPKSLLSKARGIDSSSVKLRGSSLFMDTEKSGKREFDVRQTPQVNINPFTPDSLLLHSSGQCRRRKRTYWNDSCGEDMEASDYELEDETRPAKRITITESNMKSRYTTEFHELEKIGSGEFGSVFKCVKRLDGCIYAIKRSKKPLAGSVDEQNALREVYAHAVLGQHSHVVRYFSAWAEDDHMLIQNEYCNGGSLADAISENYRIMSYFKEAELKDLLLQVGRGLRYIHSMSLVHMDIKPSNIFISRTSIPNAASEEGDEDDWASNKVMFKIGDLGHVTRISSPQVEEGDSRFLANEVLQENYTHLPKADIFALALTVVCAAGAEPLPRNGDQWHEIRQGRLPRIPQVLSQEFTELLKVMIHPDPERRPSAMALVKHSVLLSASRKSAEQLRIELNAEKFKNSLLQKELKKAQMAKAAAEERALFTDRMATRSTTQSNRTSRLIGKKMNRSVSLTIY
T2 sequence (Q96SW2 whole entry): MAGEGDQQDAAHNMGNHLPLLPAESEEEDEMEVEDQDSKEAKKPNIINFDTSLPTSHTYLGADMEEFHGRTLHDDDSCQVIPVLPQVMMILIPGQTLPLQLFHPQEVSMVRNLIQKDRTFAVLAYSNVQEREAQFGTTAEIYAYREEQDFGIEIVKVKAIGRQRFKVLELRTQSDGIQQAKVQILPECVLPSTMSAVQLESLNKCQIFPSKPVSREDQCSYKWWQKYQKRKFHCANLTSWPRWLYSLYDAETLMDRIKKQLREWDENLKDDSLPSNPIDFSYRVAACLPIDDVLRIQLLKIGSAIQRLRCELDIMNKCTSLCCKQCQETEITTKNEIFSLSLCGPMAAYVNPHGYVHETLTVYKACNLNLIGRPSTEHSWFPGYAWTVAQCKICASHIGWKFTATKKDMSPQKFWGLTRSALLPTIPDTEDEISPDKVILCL
T2 sequence (Q16531 whole entry partner): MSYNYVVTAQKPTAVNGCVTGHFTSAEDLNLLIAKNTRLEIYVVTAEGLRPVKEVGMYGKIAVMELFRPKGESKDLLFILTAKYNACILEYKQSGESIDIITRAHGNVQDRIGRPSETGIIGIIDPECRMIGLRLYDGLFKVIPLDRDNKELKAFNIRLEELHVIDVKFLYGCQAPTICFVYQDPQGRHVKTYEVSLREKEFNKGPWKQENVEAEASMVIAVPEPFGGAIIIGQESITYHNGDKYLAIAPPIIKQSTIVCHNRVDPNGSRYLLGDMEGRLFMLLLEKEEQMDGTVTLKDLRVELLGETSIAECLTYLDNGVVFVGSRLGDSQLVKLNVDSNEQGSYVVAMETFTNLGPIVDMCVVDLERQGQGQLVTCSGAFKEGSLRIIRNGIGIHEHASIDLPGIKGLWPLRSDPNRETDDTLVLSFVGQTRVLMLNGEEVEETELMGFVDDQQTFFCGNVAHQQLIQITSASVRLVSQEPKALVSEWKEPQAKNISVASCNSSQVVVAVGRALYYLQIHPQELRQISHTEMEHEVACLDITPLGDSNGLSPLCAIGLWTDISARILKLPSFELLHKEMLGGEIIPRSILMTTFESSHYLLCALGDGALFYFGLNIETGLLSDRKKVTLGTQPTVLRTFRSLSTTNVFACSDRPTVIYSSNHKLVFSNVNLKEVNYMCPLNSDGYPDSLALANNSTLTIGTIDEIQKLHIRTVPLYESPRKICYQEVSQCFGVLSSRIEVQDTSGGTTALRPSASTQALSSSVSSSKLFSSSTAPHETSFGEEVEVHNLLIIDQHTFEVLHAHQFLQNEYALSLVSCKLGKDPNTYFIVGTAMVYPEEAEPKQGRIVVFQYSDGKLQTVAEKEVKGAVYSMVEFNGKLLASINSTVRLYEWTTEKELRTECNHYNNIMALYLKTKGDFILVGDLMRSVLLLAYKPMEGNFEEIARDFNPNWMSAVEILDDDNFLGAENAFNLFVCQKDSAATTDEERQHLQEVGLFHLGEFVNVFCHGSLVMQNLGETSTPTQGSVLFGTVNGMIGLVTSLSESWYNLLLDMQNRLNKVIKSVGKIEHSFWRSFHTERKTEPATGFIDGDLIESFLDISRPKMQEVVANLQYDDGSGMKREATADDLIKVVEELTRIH
T3 sequence (Q96SW2 whole entry): as the sequence (Q96SW2 whole entry) above
T1 sequence (P48729 whole entry): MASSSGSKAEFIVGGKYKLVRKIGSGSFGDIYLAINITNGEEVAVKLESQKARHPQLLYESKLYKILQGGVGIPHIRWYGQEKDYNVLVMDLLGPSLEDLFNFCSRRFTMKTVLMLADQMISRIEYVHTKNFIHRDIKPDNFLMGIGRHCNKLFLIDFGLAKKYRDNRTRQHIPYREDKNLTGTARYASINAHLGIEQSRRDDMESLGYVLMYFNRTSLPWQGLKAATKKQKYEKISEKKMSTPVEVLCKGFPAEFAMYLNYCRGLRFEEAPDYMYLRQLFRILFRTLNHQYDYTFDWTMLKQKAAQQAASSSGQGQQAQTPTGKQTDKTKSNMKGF
T1 sequence (Q96SW2 whole entry): as the sequence (Q96SW2 whole entry) above
T1 sequence (Q16531 whole entry partner): as the sequence (Q16531 whole entry partner) above
T5 sequence (Q13422 whole entry): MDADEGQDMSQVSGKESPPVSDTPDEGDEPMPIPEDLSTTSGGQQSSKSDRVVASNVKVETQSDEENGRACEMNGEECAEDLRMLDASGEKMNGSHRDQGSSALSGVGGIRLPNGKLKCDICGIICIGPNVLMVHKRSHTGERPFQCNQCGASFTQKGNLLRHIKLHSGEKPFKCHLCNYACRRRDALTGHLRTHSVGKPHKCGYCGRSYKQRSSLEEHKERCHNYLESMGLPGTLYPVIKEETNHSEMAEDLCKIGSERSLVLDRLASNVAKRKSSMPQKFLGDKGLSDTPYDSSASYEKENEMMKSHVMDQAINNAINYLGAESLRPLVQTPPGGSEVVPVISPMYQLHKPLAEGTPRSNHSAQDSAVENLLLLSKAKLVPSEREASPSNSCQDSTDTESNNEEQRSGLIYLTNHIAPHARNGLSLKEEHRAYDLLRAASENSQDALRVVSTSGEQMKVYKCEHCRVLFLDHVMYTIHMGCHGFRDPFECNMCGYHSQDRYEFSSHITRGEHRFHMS
T5 sequence (Q96SW2 whole entry): as the sequence (Q96SW2 whole entry) above
T5 sequence (Q16531 whole entry partner): as the sequence (Q16531 whole entry partner) above
T6 sequence (P15170 whole entry): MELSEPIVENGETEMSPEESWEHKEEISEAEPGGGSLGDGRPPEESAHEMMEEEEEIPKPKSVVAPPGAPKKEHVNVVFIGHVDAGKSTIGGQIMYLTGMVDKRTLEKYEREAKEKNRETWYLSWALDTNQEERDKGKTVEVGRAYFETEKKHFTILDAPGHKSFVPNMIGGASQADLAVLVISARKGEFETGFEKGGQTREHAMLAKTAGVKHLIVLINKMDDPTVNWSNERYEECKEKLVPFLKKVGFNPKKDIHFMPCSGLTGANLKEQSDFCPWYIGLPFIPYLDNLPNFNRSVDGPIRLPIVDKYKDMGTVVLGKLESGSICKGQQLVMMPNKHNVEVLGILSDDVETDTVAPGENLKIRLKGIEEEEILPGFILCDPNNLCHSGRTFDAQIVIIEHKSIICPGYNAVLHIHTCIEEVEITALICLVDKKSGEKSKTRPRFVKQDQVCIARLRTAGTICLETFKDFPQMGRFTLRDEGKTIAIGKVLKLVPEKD
T6 sequence (Q96SW2 whole entry): as the sequence (Q96SW2 whole entry) above
T6 sequence (Q16531 whole entry partner): as the sequence (Q16531 whole entry partner) above
T4 sequence (Q9UKT9 whole entry): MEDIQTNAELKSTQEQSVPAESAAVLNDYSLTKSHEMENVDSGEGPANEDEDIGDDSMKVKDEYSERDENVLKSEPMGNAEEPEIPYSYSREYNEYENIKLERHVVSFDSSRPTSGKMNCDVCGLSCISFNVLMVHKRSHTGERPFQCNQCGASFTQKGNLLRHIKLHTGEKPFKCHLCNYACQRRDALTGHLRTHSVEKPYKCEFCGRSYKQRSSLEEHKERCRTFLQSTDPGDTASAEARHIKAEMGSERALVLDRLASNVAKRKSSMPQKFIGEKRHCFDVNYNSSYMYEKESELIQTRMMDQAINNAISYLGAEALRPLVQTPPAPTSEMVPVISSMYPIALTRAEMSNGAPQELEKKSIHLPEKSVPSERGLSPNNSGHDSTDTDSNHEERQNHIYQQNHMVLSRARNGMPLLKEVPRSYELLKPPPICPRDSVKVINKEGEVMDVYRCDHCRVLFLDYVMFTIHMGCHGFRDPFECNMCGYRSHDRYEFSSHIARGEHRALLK
T4 sequence (Q96SW2 whole entry): as the sequence (Q96SW2 whole entry) above
T4 sequence (Q16531 whole entry partner): as the sequence (Q16531 whole entry partner) above

IC50 [1] | Structure (SMILES) | CK1a substrate protein remaining % (CK1α; [2]) | Weel substrate protein remaining % (WEE1; [2]) | IKZF3 substrate protein remaining % (IKZF3; [2]) | IKZF 1 substrate protein remaining % (IKZF1; [2]) | GSPT1 substrate protein remaining % (GSPT1; [2]) | IKZF2 substrate protein remaining % (IKZF2; [2]) | CK1a substrate protein remaining % (CK1α; [3]) | Weel substrate protein remaining % (WEE1; [3]) | IKZF3 substrate protein remaining % (IKZF3; [3]) | IKZF 1 substrate protein remaining % (IKZF1; [3]) | GSPT1 substrate protein remaining % (GSPT1; [3]) | IKZF2 substrate protein remaining % (IKZF2; [3])
1500 to 1900 nM | Cc1sc2ncnc(C3CCN(Cc4ccc5c(c4)C(=O)N(C4CCC(=O)NC4=O)C5=O)CC3)c2c1C (stereo not drawn) [GT-06593, 5-((4-(5,6-dimethylthieno[2,3-d]pyrimidin-4-yl)piperidin-1-yl)methyl)-2-(2,6-dioxopiperidin-3-yl)isoindoline-1,3-dione] | B (80%< substrate protein remaining %≤ 100%) | A (0% ≤ substrate protein remaining % ≤ 80%) | A (0% ≤ substrate protein remaining % ≤ 80%) | A (0% ≤ substrate protein remaining % ≤ 80%) | A (0% ≤ substrate protein remaining % ≤ 80%) | A (0% ≤ substrate protein remaining % ≤ 80%) |  |  |  |  |  | 
500 to 1000 nM | O=C1CCC(N2Cc3cc(CN4CCN(c5ncccc5C(F)(F)F)CC4)ccc3C2=O)C(=O)N1 (stereo not drawn) [GT-04434, 3-(1-oxo-5-((4-(3-(trifluoromethyl)pyridin-2-yl)piperazin-1-yl)methyl)isoindolin-2-yl)piperidine-2,6-dione] |  |  |  |  |  |  | B (80%< substrate protein remaining %≤ 100%) | B (80%< substrate protein remaining %≤ 100%) | B (80%< substrate protein remaining %≤ 100%) | B (80%< substrate protein remaining %≤ 100%) | A (0% ≤ substrate protein remaining % ≤ 80%) | B (80%< substrate protein remaining %≤ 100%)
500 to 1000 nM | O=C1CCC(N2Cc3cc(CN4CCN(c5c(F)cncc5Cl)CC4)ccc3C2=O)C(=O)N1 (stereo not drawn) [GT-04611, 3-(5-((4-(3-chloro-5-fluoropyridin-4-yl)piperazin-1-yl)methyl)-1-oxoisoindolin-2-yl)piperidine-2,6-dione] |  |  |  |  |  |  | B (80%< substrate protein remaining %≤ 100%) | A (0% ≤ substrate protein remaining % ≤ 80%) | B (80%< substrate protein remaining %≤ 100%) | B (80%< substrate protein remaining %≤ 100%) | A (0% ≤ substrate protein remaining % ≤ 80%) | B (80%< substrate protein remaining %≤ 100%)
1000 to 1500 nM | O=C1CCC(N2C(=O)c3ccc(CN4CCC(=C5CCOc6cc(F)ccc65)CC4)cc3C2=O)C(=O)N1 (stereo not drawn) [GT-06238, 2-(2,6-dioxopiperidin-3-yl)-5-((4-(7-fluorochroman-4-ylidene)piperidin-1-yl)methyl)isoindoline-1,3-dione] |  |  |  |  |  |  | B (80%< substrate protein remaining %≤ 100%) | B (80%< substrate protein remaining %≤ 100%) | A (0% ≤ substrate protein remaining % ≤ 80%) | B (80%< substrate protein remaining %≤ 100%) | A (0% ≤ substrate protein remaining % ≤ 80%) | A (0% ≤ substrate protein remaining % ≤ 80%)
500 to 1000 nM | O=C1CCC(N2Cc3cc(CN4CCN(c5ccnc(O)c5F)CC4)ccc3C2=O)C(=O)N1 (stereo not drawn) [GT-04929, 3-(5-((4-(3-fluoro-2-hydroxypyridin-4-yl)piperazin-1-yl)methyl)-1-oxoisoindolin-2-yl)piperidine-2,6-dione] |  |  |  |  |  |  | B (80%< substrate protein remaining %≤ 100%) | B (80%< substrate protein remaining %≤ 100%) | B (80%< substrate protein remaining %≤ 100%) | A (0% ≤ substrate protein remaining % ≤ 80%) | A (0% ≤ substrate protein remaining % ≤ 80%) | B (80%< substrate protein remaining %≤ 100%)
1500 to 1900 nM | O=C1CCC(N2Cc3cc(CN4CCCC(C5CCNCC5)C4)ccc3C2=O)C(=O)N1 (stereo not drawn) [GT-04591, 3-(5-([3,4'-bipiperidin]-1-ylmethyl)-1-oxoisoindolin-2-yl)piperidine-2,6-dione] |  |  |  |  |  |  | A (0% ≤ substrate protein remaining % ≤ 80%) | B (80%< substrate protein remaining %≤ 100%) | B (80%< substrate protein remaining %≤ 100%) | B (80%< substrate protein remaining %≤ 100%) | A (0% ≤ substrate protein remaining % ≤ 80%) | B (80%< substrate protein remaining %≤ 100%)
1500 to 1900 nM | O=C1CCC(N2Cc3cc(CN4CCN(c5ncc(C(F)(F)F)cc5Cl)CC4)ccc3C2=O)C(=O)N1 (stereo not drawn) [GT-04480, 3-(5-((4-(3-chloro-5-(trifluoromethyl)pyridin-2-yl)piperazin-1-yl)methyl)-1-oxoisoindolin-2-yl)piperidine-2,6-dione] |  |  |  |  |  |  | A (0% ≤ substrate protein remaining % ≤ 80%) | A (0% ≤ substrate protein remaining % ≤ 80%) | A (0% ≤ substrate protein remaining % ≤ 80%) | A (0% ≤ substrate protein remaining % ≤ 80%) | A (0% ≤ substrate protein remaining % ≤ 80%) | A (0% ≤ substrate protein remaining % ≤ 80%)
500 to 1000 nM | O=C1CCC(N2C(=O)c3ccc(CN4CCN(c5ccsc5)CC4)cc3C2=O)C(=O)N1 (stereo not drawn) [GT-06215, 2-(2,6-dioxopiperidin-3-yl)-5-((4-(thiophen-3-yl)piperazin-1-yl)methyl)isoindoline-1,3-dione] | A (0% ≤ substrate protein remaining % ≤ 80%) | A (0% ≤ substrate protein remaining % ≤ 80%) | A (0% ≤ substrate protein remaining % ≤ 80%) | B (80%< substrate protein remaining %≤ 100%) | B (80%< substrate protein remaining %≤ 100%) | B (80%< substrate protein remaining %≤ 100%) |  |  |  |  |  | 
< 500 nM | O=C1CCC(N2Cc3cc(CN4CCN(c5ncccc5Cl)CC4)ccc3C2=O)C(=O)N1 (stereo not drawn) [GT-04428, 3-(5-((4-(3-chloropyridin-2-yl)piperazin-1-yl)methyl)-1-oxoisoindolin-2-yl)piperidine-2,6-dione] |  |  |  |  |  |  | B (80%< substrate protein remaining %≤ 100%) | B (80%< substrate protein remaining %≤ 100%) | B (80%< substrate protein remaining %≤ 100%) | B (80%< substrate protein remaining %≤ 100%) | A (0% ≤ substrate protein remaining % ≤ 80%) | B (80%< substrate protein remaining %≤ 100%)
1500 to 1900 nM | CC(C)c1cc2c(N3CCN(Cc4ccc5c(c4)C(=O)N(C4CCC(=O)NC4=O)C5=O)CC3)ncnc2s1 (stereo not drawn) [GT-06306, 2-(2,6-dioxopiperidin-3-yl)-5-((4-(6-isopropylthieno[2,3-d]pyrimidin-4-yl)piperazin-1-yl)methyl)isoindoline-1,3-dione] | A (0% ≤ substrate protein remaining % ≤ 80%) | B (80%< substrate protein remaining %≤ 100%) | A (0% ≤ substrate protein remaining % ≤ 80%) | A (0% ≤ substrate protein remaining % ≤ 80%) | A (0% ≤ substrate protein remaining % ≤ 80%) | A (0% ≤ substrate protein remaining % ≤ 80%) |  |  |  |  |  | 
500 to 1000 nM | O=C1CCC(N2Cc3cc(CN4CCN(c5ncc(Cl)cc5Cl)CC4)ccc3C2=O)C(=O)N1 (stereo not drawn) [GT-04479, 3-(5-((4-(3,5-dichloropyridin-2-yl)piperazin-1-yl)methyl)-1-oxoisoindolin-2-yl)piperidine-2,6-dione] |  |  |  |  |  |  | B (80%< substrate protein remaining %≤ 100%) | B (80%< substrate protein remaining %≤ 100%) | A (0% ≤ substrate protein remaining % ≤ 80%) | B (80%< substrate protein remaining %≤ 100%) | A (0% ≤ substrate protein remaining % ≤ 80%) | A (0% ≤ substrate protein remaining % ≤ 80%)
< 500 nM | O=C1CCC(N2Cc3cc(CN4CCN(c5ncnc6sc7c(c56)CCCC7)CC4)ccc3C2=O)C(=O)N1 (stereo not drawn) [GT-05209, 3-(1-oxo-5-((4-(5,6,7,8-tetrahydrobenzo[4,5]thieno[2,3-d]pyrimidin-4-yl)piperazin-1-yl)methyl)isoindolin-2-yl)piperidine-2,6-dione] |  |  |  |  |  |  | B (80%< substrate protein remaining %≤ 100%) | A (0% ≤ substrate protein remaining % ≤ 80%) | A (0% ≤ substrate protein remaining % ≤ 80%) | A (0% ≤ substrate protein remaining % ≤ 80%) | B (80%< substrate protein remaining %≤ 100%) | A (0% ≤ substrate protein remaining % ≤ 80%)
